Test results taken from patent US8815909B2, “Diaminocyclohexane compounds and uses thereof” (Bristol-Myers Squibb Company, priority 2011, dated 2014).
Where two headings read alike, the source gives them in different places.

Target: T1, human Y4 receptor (Homo sapiens, UniProt P50391)
T1 construct: expressed in transfected cells
Test: NPY4 cAMP HTRF Agonist Assay (inhibitory cAMP assay, Gi activation by Y4 agonism)
Format: cell-based
Details: read-out: hY4 CAMP EC50
Procedure, shortened: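 Y4 agonism read as lowered forskolin-stimulated cAMP (HTRF, 1 h detection at room temperature). Stable human Y4 CHO clone, 5000 cells/well, incubated 30 min at room temperature with compounds plus forskolin and IBMX in PBS.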

T1 sequence (P50391 whole entry): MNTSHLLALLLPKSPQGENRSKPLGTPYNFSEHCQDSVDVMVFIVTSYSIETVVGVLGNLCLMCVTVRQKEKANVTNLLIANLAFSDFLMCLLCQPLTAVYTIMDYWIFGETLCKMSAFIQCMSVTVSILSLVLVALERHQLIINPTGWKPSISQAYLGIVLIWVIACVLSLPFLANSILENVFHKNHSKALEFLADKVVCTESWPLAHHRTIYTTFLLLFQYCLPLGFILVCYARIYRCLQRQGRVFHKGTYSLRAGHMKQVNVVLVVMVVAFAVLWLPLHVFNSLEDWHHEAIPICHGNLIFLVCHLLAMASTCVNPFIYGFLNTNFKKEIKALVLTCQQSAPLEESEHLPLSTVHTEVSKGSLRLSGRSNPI

| SMILES | EC50 (TABLE 4, R2 is Pyridinyl-CN) [nM] | EC50 (TABLE 5, R2 is Pyridinyl-CF3) [nM] | other results |
| --- | --- | --- | --- |
| N#Cc1ccc(N2CCC[C@H](N[C@@H]3CCCC[C@H]3Nc3cc(-n4cccc4)ccn3)C2)cc1 [Example 280] |  |  | EC50 (TABLE 2, R2 is Phenyl-CN): 43 nM |
| N#Cc1ccc(N2CCC[C@H](N[C@@H]3CCCC[C@H]3Nc3cc4ccccc4cn3)C2)cc1 [Example 281] |  |  | EC50 (TABLE 2, R2 is Phenyl-CN): 152 nM |
| COC(=O)Nc1cccc(-c2cnc(N[C@@H]3CCCC[C@H]3N[C@H]3CCCN(c4ccc(C#N)cc4)C3)o2)c1 [Example 282] |  |  | EC50 (TABLE 2, R2 is Phenyl-CN): 1 nM |
| N#Cc1ccc(N2CCC[C@H](N[C@@H]3CCCC[C@H]3Nc3ncc4cc(F)ccc4n3)C2)cc1 [Example 283] |  |  | EC50 (TABLE 2, R2 is Phenyl-CN): 308 nM |
| N#Cc1ccc(N2CCC[C@H](N[C@@H]3CCCC[C@H]3Nc3cc(-n4cccn4)ccn3)C2)cc1 [Example 284] |  |  | EC50 (TABLE 2, R2 is Phenyl-CN): 176 nM |
| N#Cc1ccc(-c2cnc(N[C@@H]3CCCC[C@H]3N[C@H]3CCCN(c4ccc([N+](=O)[O-])cc4)C3)o2)cc1 [Example 285] |  |  | EC50 (TABLE 3, R2 is Phenyl-NO2): 26 nM |
| O=[N+]([O-])c1ccc(N2CCC[C@H](N[C@@H]3CCCC[C@H]3NC3=NOC(c4ccccc4)C3)C2)cc1 (stereo partly shown) [Example 286] |  |  | EC50 (TABLE 3, R2 is Phenyl-NO2): 74 nM |
| C[C@]1(N[C@@H]2CCCC[C@H]2Nc2ncc(-c3ccc(OC(F)(F)F)cc3)o2)CCCN(c2ccc([N+](=O)[O-])cc2)C1 [Example 287] |  |  | EC50 (TABLE 3, R2 is Phenyl-NO2): 1 nM |
| N#Cc1cccc(-c2ccnc(N[C@@H]3CCCC[C@H]3N[C@H]3C[C@@H]4C[C@H]3N(c3ccc([N+](=O)[O-])cc3)C4)c2)c1 [Example 293] |  |  | EC50 (TABLE 3, R2 is Phenyl-NO2): 163 nM |
| NC(=O)c1cccc(-c2ccnc(N[C@@H]3CCCC[C@H]3N[C@H]3C[C@@H]4C[C@H]3N(c3ccc([N+](=O)[O-])cc3)C4)c2)c1 [Example 294] |  |  | EC50 (TABLE 3, R2 is Phenyl-NO2): 41 nM |
| O=[N+]([O-])c1ccc(N2C[C@@H]3C[C@H](N[C@@H]4CCCC[C@H]4Nc4cc(Cl)ncn4)[C@H]2C3)cc1 [Example 295] |  |  | EC50 (TABLE 3, R2 is Phenyl-NO2): 122 nM |
| O=[N+]([O-])c1ccc(N2C[C@@H]3C[C@H](N[C@@H]4CCCC[C@H]4Nc4cc(-c5ccc(OC(F)(F)F)cc5)ncn4)[C@H]2C3)cc1 [Example 296] |  |  | EC50 (TABLE 3, R2 is Phenyl-NO2): 68 nM |
| NC(=O)c1cccc(-c2cc(N[C@@H]3CCCC[C@H]3N[C@H]3C[C@@H]4C[C@H]3N(c3ccc([N+](=O)[O-])cc3)C4)ncn2)c1 [Example 297] |  |  | EC50 (TABLE 3, R2 is Phenyl-NO2): 163 nM |
| C[C@]1(N[C@@H]2CCCC[C@H]2Nc2ncc(-c3cccc(C(N)=O)c3)o2)CCCN(c2ccc(C#N)cn2)C1 [Example 298] | 23 |  |  |
| N#Cc1ccc(N2C[C@@H]3C[C@H](N[C@@H]4CCCC[C@H]4Nc4cc(-c5cccc(C(N)=O)c5)ccn4)[C@H]2C3)nc1 [Example 299] | 392 |  |  |
| N#Cc1ccc(N2CCC[C@H](N[C@@H]3CCCC[C@H]3Nc3cc(-c4cccc(C(N)=O)c4)ccn3)C2)nc1 [Example 300] | 130 |  |  |
| C[C@]1(N[C@@H]2CCCC[C@H]2Nc2cc(-c3cccc(C(N)=O)c3)ccn2)CCCN(c2ccc(C#N)cn2)C1 [Example 301] | 66 |  |  |
| N#Cc1ccc(N2C[C@@H]3C[C@H](N[C@@H]4CCCC[C@H]4Nc4cc(-c5cccc(C(N)=O)c5)ccn4)[C@H]2C3)cn1 [Example 302] | 1210 |  |  |
| N#Cc1ccc(N2C[C@@H]3C[C@H](N[C@@H]4CCCC[C@H]4Nc4ncc(-c5cccc(C(N)=O)c5)o4)[C@H]2C3)cn1 [Example 303] | 221 |  |  |
| C[C@]1(N[C@@H]2CCCC[C@H]2Nc2ncc(-c3cccc(C(N)=O)c3)o2)CCCN(c2ccc(C#N)nc2)C1 [Example 304] | 3 |  |  |

| SMILES | EC50 (TABLE 4, R2 is Pyridinyl-CN) [nM] | EC50 (TABLE 5, R2 is Pyridinyl-CF3) [nM] | other results |
| --- | --- | --- | --- |
| N#Cc1ccc(N2CCC[C@H](N[C@@H]3CCCC[C@H]3Nc3ncc(-c4cccc(C(N)=O)c4)o3)C2)cn1 [Example 305] | 7 |  |  |
| C[C@]1(N[C@@H]2CCCC[C@H]2Nc2cc(-c3cccc(C(N)=O)c3)ccn2)CCCN(c2ccc(C#N)nc2)C1 [Example 306] | 141 |  |  |
| N#Cc1cc(N2CCC[C@H](N[C@@H]3CCCC[C@H]3Nc3ncc(-c4ccc(OC(F)(F)F)cc4)o3)C2)ccn1 [Example 307] | 7 |  |  |
| N#Cc1ccc(N2CCC[C@H](N[C@@H]3CCCC[C@H]3Nc3nccc(-c4ccccc4)n3)C2)cn1 [Example 308] | 135 |  |  |
| N#Cc1ccc(N2CCC[C@H](N[C@@H]3CCCCC3Nc3ncc(-c4ccc(OC(F)(F)F)cc4)o3)C2)cn1 (stereo partly shown) [Example 309] | 10 |  |  |
| N#Cc1cc(N2C[C@@H]3C[C@H](N[C@@H]4CCCC[C@H]4Nc4ncc(-c5ccc(OC(F)(F)F)cc5)o4)[C@H]2C3)ccn1 [Example 310] | 124 |  |  |
| N#Cc1cc(N2CCC[C@H](N[C@@H]3CCCC[C@H]3Nc3ncc(-c4ccccc4OC(F)(F)F)o3)C2)ccn1 [Example 311] | 9 |  |  |
| N#Cc1ccc(N2CCCC(N[C@@H]3CCCC[C@H]3Nc3cc(-c4cccc(C(N)=O)c4)ccn3)C2)cn1 (stereo partly shown) [Example 312] | 124 |  |  |
| CC(O)c1cccc(-c2ccnc(N[C@@H]3CCCC[C@H]3NC3CCCN(c4ccc(C#N)nc4)C3)c2)c1 (stereo partly shown) [Example 313] | 68 |  |  |
| CC(C)(O)c1cccc(-c2ccnc(N[C@@H]3CCCC[C@H]3NC3CCCN(c4ccc(C#N)nc4)C3)c2)c1 (stereo partly shown) [Example 314] | 67 |  |  |
| N#Cc1ccc(N2CCCC(N[C@@H]3CCCC[C@H]3Nc3ncc(-c4ccc(OC(F)(F)F)cc4)o3)C2)nc1 (stereo partly shown) [Example 315] | 15 |  |  |
| N#Cc1ccc(N2CCC[C@H](N[C@@H]3CCCC[C@H]3Nc3cc(-c4cccc(C(N)=O)c4)ccn3)C2)cn1 [Example 316] | 165 |  |  |
| CC(C)(O)c1cccc(-c2ccnc(N[C@@H]3CCCC[C@H]3N[C@H]3CCCN(c4ccc(C#N)nc4)C3)c2)c1 [Example 317] | 105 |  |  |
| NC(=O)c1cccc(-c2cnc(N[C@@H]3CCCC[C@H]3N[C@H]3CCCN(c4ccc(C(F)(F)F)cn4)C3)o2)c1 [Example 318] |  | 1 |  |
| NC(=O)c1cccc(-c2ccnc(N[C@@H]3CCCC[C@H]3N[C@H]3CCCN(c4ccc(C(F)(F)F)cn4)C3)c2)c1 [Example 319] |  | 10 |  |
| NC(=O)c1cccc(-c2cnc(N[C@@H]3CCCC[C@H]3N[C@H]3CCCN(c4ccc(C(F)(F)F)nc4)C3)o2)c1 [Example 320] |  | 1 |  |
| NC(=O)c1cccc(-c2ccnc(N[C@@H]3CCCC[C@H]3N[C@H]3CCCN(c4ccc(C(F)(F)F)nc4)C3)c2)c1 [Example 321] |  | 16 |  |
| C[C@]1(N[C@@H]2CCCC[C@H]2Nc2ncc(-c3cccc(C(N)=O)c3)o2)CCCN(c2ccc(C(F)(F)F)nc2)C1 [Example 322] |  | 2 |  |
| C[C@]1(N[C@@H]2CCCC[C@H]2Nc2cc(-c3cccc(C(N)=O)c3)ccn2)CCCN(c2ccc(C(F)(F)F)nc2)C1 [Example 323] |  | 17 |  |
| O=C(O)c1cccc(-c2cnc(N[C@@H]3CCCC[C@H]3N[C@H]3CCCN(c4ccc(C(F)(F)F)nc4)C3)o2)c1 [Example 324] |  | 52 |  |

| SMILES | EC50 (TABLE 4, R2 is Pyridinyl-CN) [nM] | EC50 (TABLE 5, R2 is Pyridinyl-CF3) [nM] | other results |
| --- | --- | --- | --- |
| NC(=O)c1cccc(-c2cnc(N[C@@H]3CCCC[C@H]3N[C@H]3C[C@@H]4C[C@H]3N(c3ccnc(C(F)(F)F)c3)C4)o2)c1 [Example 325] |  | 567 |  |
| NC(=O)c1cccc(-c2cnc(N[C@@H]3CCCC[C@H]3N[C@H]3C[C@@H]4C[C@H]3N(c3ccc(C(F)(F)F)cn3)C4)o2)c1 [Example 326] |  | 9 |  |
| NC(=O)c1cccc(-c2ccnc(N[C@@H]3CCCC[C@H]3N[C@H]3C[C@@H]4C[C@H]3N(c3ccc(C(F)(F)F)nc3)C4)c2)c1 [Example 327] |  | 180 |  |
| NC(=O)c1cccc(-c2cnc(N[C@@H]3CCCC[C@H]3N[C@H]3C[C@@H]4C[C@H]3N(c3ccc(C(F)(F)F)nc3)C4)o2)c1 [Example 328] |  | 31 |  |
| C[C@]1(N[C@@H]2CCCC[C@H]2Nc2ncc(-c3cccc(C(N)=O)c3)o2)CCCN(c2ccc(C(F)(F)F)cn2)C1 [Example 329] |  | 1 |  |
| COC(=O)c1cccc(-c2cnc(N[C@@H]3CCCC[C@H]3N[C@H]3CCCN(c4ccc(C(F)(F)F)cn4)C3)o2)c1 [Example 330] |  | 166 |  |
| COC(=O)Nc1cccc(-c2cnc(N[C@@H]3CCCC[C@H]3N[C@H]3CCCN(c4ccc(C(F)(F)F)nc4)C3)o2)c1 [Example 331] |  | 5 |  |
| C[C@]1(N[C@@H]2CCCC[C@H]2Nc2cc(-c3cccc(C(N)=O)c3)ccn2)CCCN(c2ccc(C(F)(F)F)cn2)C1 [Example 332] |  | 24 |  |
| CC(C)(C)OC(=O)Nc1cccc(-c2cnc(N[C@@H]3CCCC[C@H]3N[C@H]3CCCN(c4ccc(C(F)(F)F)nc4)C3)o2)c1 [Example 333] |  | 95 |  |
| O=C(Nc1cccc(-c2cnc(N[C@@H]3CCCC[C@H]3N[C@H]3CCCN(c4ccc(C(F)(F)F)nc4)C3)o2)c1)C1CC1 [Example 334] |  | 3 |  |
| COc1ccc(-c2cnc(N[C@@H]3CCCC[C@H]3N[C@H]3CCCN(c4ccc(C(F)(F)F)nc4)C3)o2)cc1C#N [Example 335] |  | 1600 |  |
| FC(F)(F)Oc1ccc(-c2cnc(N[C@@H]3CCCC[C@H]3N[C@H]3CCCN(c4ccnc(C(F)(F)F)c4)C3)o2)cc1 [Example 336] |  | 212 |  |
| NC(=O)c1cccc(-c2ccnc(N[C@@H]3CCCC[C@H]3N[C@H]3C[C@@H]4C[C@H]3N(c3ccc(C(F)(F)F)cn3)C4)c2)c1 [Example 337] |  | 26 |  |
| FC(F)(F)Oc1ccc(-c2cnc(N[C@@H]3CCCC[C@H]3N[C@H]3C[C@@H]4C[C@H]3N(c3ccc(C(F)(F)F)cn3)C4)o2)cc1 [Example 338] |  | 226 |  |
| COC(=O)Nc1cccc(-c2ccnc(N[C@@H]3CCCC[C@H]3N[C@H]3CCCN(c4ccc(-c5noc(C)n5)cc4)C3)c2)c1 [Example 339] |  |  | EC50 (human Y4 receptor, cAMP): 0.1 nM |
| CCOC(=O)Nc1cccc(-c2cnc(N[C@@H]3CCCC[C@H]3N[C@H]3CCCN(c4ccc(-c5noc(C)n5)cc4)C3)o2)c1 [Example 340] |  |  | EC50 (human Y4 receptor, cAMP): 3 nM |
| Cc1nc(-c2ccc(N3CCC[C@H](N[C@@H]4CCCC[C@H]4Nc4cc(-c5cccc(OC(F)(F)F)c5)ccn4)C3)cc2)no1 [Example 341] |  |  | EC50 (human Y4 receptor, cAMP): 123 nM |
| Cc1nc(-c2ccc(N3CCC[C@H](N[C@@H]4CCCC[C@H]4Nc4cc(-c5ccc(F)c(F)c5)ccn4)C3)cc2)no1 [Example 342] |  |  | EC50 (human Y4 receptor, cAMP): 8 nM |
